# Legend:
# [1] = molecular target: T1, fast skeletal myosin MYH1 (Oryctolagus cuniculus, UniProt A0A5F9CQ93); assay: myofibril ATPase assay; assay type: biochemical
# T1 construct: with sarcomere proteins (actin, troponin, tropomyosin) of the myofibril
# β-cardiac myosin (β-MHC) = molecular target: T2, β-cardiac myosin (β-MHC) (Bos taurus, UniProt Q9BE39); assay: co-crystal structure at […] Å with aficamten and vanadate; assay type: binding
# T2 construct: gene MYH7; motor domain (MD) in the pre-powerstroke state
# T2 sequence (Q9BE39 1-782): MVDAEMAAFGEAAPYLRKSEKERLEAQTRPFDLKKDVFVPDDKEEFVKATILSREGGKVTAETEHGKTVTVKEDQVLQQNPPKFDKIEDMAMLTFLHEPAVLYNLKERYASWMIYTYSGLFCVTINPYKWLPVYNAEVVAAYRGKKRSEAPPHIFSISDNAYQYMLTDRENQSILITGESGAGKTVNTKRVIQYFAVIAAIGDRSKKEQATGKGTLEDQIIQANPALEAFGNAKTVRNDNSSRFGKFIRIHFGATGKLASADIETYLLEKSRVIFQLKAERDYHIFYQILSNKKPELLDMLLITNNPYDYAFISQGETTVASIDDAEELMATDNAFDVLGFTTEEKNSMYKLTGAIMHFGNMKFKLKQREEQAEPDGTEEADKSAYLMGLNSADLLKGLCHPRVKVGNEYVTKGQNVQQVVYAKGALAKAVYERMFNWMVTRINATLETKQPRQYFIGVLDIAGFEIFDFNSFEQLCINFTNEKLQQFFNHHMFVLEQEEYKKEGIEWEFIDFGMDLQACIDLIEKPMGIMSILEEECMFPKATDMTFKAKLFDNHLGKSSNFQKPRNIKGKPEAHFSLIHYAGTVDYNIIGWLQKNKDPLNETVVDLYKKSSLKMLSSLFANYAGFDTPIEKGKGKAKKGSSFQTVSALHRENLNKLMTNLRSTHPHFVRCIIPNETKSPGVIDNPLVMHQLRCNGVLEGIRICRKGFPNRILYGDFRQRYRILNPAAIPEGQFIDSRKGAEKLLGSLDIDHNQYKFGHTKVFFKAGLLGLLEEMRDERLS
# T1 sequence (P02602 2-192): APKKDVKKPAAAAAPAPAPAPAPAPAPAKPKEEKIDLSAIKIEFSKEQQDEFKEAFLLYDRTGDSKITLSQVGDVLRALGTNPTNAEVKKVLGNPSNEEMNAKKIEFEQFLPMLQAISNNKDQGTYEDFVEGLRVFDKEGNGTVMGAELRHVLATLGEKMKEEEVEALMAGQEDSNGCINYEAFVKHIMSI
# T1 sequence (P02608 2-170, further chain): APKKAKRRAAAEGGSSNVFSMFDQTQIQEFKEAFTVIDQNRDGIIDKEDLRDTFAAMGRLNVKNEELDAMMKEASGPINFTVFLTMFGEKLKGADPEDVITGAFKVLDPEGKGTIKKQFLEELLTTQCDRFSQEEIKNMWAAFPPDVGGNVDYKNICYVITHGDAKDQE
# T1 sequence (A0A5F9CQ93 entry or part of it): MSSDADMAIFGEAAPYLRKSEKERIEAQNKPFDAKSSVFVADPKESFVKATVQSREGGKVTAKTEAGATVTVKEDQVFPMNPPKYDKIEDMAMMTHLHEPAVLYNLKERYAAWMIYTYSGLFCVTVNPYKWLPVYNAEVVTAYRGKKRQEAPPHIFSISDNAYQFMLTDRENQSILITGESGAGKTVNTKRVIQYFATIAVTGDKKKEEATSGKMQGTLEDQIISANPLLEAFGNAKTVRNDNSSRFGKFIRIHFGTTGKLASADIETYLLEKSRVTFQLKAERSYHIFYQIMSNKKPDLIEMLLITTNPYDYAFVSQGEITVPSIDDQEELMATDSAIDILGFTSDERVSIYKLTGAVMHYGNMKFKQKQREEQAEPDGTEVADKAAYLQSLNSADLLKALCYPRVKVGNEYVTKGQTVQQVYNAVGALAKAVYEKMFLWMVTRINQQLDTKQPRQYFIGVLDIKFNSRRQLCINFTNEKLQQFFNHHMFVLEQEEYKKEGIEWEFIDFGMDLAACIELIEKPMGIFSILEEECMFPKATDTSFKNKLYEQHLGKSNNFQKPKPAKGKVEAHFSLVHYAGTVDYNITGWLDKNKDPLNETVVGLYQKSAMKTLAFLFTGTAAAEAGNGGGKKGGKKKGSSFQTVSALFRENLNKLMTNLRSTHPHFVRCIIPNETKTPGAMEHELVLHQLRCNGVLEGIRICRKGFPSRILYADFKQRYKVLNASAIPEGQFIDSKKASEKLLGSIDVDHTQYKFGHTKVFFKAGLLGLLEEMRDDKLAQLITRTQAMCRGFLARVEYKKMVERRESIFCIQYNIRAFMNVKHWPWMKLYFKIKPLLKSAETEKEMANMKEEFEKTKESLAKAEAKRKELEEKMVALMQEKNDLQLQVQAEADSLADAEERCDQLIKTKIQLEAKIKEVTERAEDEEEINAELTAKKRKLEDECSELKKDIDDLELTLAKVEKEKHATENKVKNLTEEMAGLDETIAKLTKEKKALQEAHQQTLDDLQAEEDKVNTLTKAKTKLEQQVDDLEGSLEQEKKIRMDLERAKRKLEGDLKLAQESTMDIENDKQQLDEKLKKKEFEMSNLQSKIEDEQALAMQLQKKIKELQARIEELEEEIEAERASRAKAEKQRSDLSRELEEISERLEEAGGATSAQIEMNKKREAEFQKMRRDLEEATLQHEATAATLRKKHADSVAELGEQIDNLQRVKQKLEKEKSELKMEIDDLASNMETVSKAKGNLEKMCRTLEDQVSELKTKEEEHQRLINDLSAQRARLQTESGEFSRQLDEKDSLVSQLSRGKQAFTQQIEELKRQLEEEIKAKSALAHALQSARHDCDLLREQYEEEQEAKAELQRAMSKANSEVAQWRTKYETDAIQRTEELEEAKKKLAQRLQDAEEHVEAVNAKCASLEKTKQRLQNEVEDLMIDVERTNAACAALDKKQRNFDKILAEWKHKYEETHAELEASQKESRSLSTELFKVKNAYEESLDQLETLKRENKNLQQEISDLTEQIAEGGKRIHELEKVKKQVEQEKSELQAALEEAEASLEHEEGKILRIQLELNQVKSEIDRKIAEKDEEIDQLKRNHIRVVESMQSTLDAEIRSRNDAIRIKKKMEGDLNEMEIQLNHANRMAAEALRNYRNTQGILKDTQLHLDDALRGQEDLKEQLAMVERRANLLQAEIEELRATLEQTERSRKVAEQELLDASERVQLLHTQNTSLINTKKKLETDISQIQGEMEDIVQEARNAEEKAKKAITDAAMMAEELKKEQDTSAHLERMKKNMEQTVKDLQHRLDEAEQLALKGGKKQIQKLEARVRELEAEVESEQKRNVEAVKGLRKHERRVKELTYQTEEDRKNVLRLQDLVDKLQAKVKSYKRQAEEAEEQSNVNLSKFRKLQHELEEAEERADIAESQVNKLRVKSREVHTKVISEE
SMILES,IC50 [1],co-crystal structure at 2.33 Å with aficamten and vanadate (β-cardiac myosin (β-MHC))
CCc1nc(-c2ccc3c(c2)CC[C@H]3NC(=O)c2cnn(C)c2)no1 [aficamten],6.52 µM,–
Nc1ncnc2c1ncn2[C@@H]1O[C@H](COP(=O)(O)OP(=O)(O)O)[C@@H](O)[C@H]1O [ADP],–,the upper inset displays ADP and Vanadate and the lower inset displays aficamten
